Patent publication US20140024700A1, “BLOOD-BORNE MIRNAS AS SURROGATE MARKERS OF DRUG EFFICACY FOR CARDIAC CONDITIONS” (miRagen Therapeutics, Inc., priority 2010, published 2014)

How the values were obtained:
[1] = test system: miR-208a, miR-499, miR-208b, Myh6, Myh7b, Myh7, Dynlt1, Vcpip, Tegt; test: Cardiac tissue real-time PCR, 6% NaCl diet (Example 3); assay type: in vivo, rat; details: M-10101 25 mg/kg sc, Captopril po daily
Procedure: (§1) One week following the initiation of the 6.0% NaCl diet, rats were dosed subcutaneously (sc) with saline or oligonucleotides (M−10101, 5′-CTTTTTGCTCGTCTTA-3′ (SEQ ID NO: 12) or M-10591, 5′-TCCTAGAAAGAGTAGA-3′ (SEQ ID NO:13)) at 25 mg/kg every 2 weeks. Captopril or water were dosed daily by oral gavage. Echocardiography was performed every 2 weeks starting one week post […] dosing. The Captopril dose for rat was selected to match the standard human dose in man.
For in vivo real-time PCR analysis, RNA was extracted from cardiac tissue using Trizol (Invitrogen) after which two μg RNA from each tissue sample was used to generate cDNA using Super Script II reverse transcriptase per manufacturer's specifications (Invitrogen). To detect the level of miR-208 RT-PCR was performed using the Taqman MicroRNA assay (Applied Biosystems, ABI) according the manufacturer's recommendations, using 10-100 ng of total RNA. The expression of a subset of genes was analyzed by quantitative real time PCR using Taqman probes purchased from AB.

[2] = test system: Dahl salt-sensitive rats; test: Dahl salt-sensitive rat model, 6% NaCl diet: body weight and survival (Example 3); assay type: in vivo
[3] = test system: plasma miRNAs; test: Real-time PCR of plasma miRNAs, 6% NaCl diet (Example 3); assay type: in vivo, rat
Procedure: as §1
Quantitative real-time PCR analysis from plasma. RNA from plasma samples was isolated using Trizol LS Reagent (Invitrogen), using the manufacturer's protocol. Prior to RNA isolation, […] of two different synthetic C. elegans miRNA sequences were added to serve as internal controls for normalization of target miRNAs. The C. elegans sequences used were cel-miR-2 ([…], SEQ ID NO:5), and cel-lin-4 ([…]; SEQ ID NO:6) (Dharmacon). The final RNA pellet was re-suspended in a final volume equal to the initial plasma volume and 5 μl was used for subsequent RT-PCR reactions, as described above.

[4] = test system: miR-208a, Myh6, Myh7; test: Cardiac tissue markers by Taqman RT-PCR, 4% NaCl diet (Example 2); assay type: in vivo, rat; details: 25 mg/kg sc every 2 weeks; for Myh6 expression in cardiac tissue: 25 mg/kg
Procedure: The flowing experimental groups were tested:
Following catheter implant surgery, high-salt diet was initiated. […] Animals were sacrificed 8 weeks after the initial injection.
Tissue RNA was isolated using standard Trizol RNA isolation.

Compound	Myh7b levels in the heart [1]	αMHC (Myh6) in the heart (reduced by HS diet) [1]	βMHC (Myh7) expression (increase induced by HS diet) [1]	Survival (Kaplan-Meier) ([2]; 1.5 mg/kg Captopril po daily)	Body weight ([2]; 15 mg/kg Captopril po daily)	Plasma miR-21 [3]	Plasma miR-150 [3]	Plasma miR-223 [3]	Plasma miR-423-5p, miR-106b, miR-16, miR-92a, miR-378, miR-210, miR-378*, miR-20b and miR-93 [3]	Body weight ([2]; oligonucleotide 25 mg/kg sc every 2 weeks)	Myh7 expression in cardiac tissue [4]	Myh6 expression in cardiac tissue [4]	Myh6 expression in cardiac tissue ([4]; listed as control oligonucleotide)
C[C@H](CS)C(=O)N1CCC[C@H]1C(=O)O [Captopril, reference compound]	no apparent effect	normalized	reduced the increase	pronounced decrease in survival	slightly reduced the high-salt (HS) diet-induced decrease in body weight	reduced specifically	reduced specifically	significantly reduced	decreased	–	–	–	–
M-10591: control oligonucleotide targeting miR-67 from C. elegans; 5′-TCCTAGAAAGAGTAGA-3′ (SEQ ID NO:13) (LNA-modified control oligonucleotide, pattern not given here) [reference compound]	–	–	–	–	–	–	–	–	–	no apparent effect on weight gain	significantly increased	significant decrease	no effect
